We go through one cell line from the supplement of paper PMC10307832.

Common to all, as to test: relative viability (nuclei count vs DMSO), 5 days (fraction); higher = more cells survive
Compound in the assay “QS11 + Tozasertib”: C1CC2=C(C1)C=C(C=C2)OC3=NC(=C4C(=N3)N(C=N4)CC5=CC=C(C=C5)C6=CC=CC=C6)N[C@@H](CC7=CC=CC=C7)CO [QS11] + Cc1cc(Nc2cc(N3CCN(C)CC3)nc(Sc3ccc(NC(=O)C4CC4)cc3)n2)n[nH]1 [Tozasertib] (partner 0.1 µM)
The essentials: (§1)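 Relative viability equals treated-well nuclei counts divided by vehicle-well nuclei counts. Counts came from 4× images of lung cancer cell lines grown in 1536-well plates for 5 days after pin-tool dosing on the day after seeding. Dosing used one drug alone or a fixed anchor-drug dose plus five library-drug doses (not always all listed) in √10 steps, and values are medians of duplicate plates.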

Compound in the assay “QS11 + Palbociclib”: C1CC2=C(C1)C=C(C=C2)OC3=NC(=C4C(=N3)N(C=N4)CC5=CC=C(C=C5)C6=CC=CC=C6)N[C@@H](CC7=CC=CC=C7)CO [QS11] + CC(=O)c1c(C)c2cnc(Nc3ccc(N4CCNCC4)cn3)nc2n(C2CCCC2)c1=O [Palbociclib] (partner 0.5 µM)
The procedure, abridged: as §1

Compound in the assay “AZ628 + Foretinib”: CC1=C(C=C(C=C1)NC(=O)C2=CC(=CC=C2)C(C)(C)C#N)NC3=CC4=C(C=C3)N=CN(C4=O)C [AZ628] + COc1cc2c(Oc3ccc(NC(=O)C4(C(=O)Nc5ccc(F)cc5)CC4)cc3F)ccnc2cc1OCCCN1CCOCC1 [Foretinib] (partner 0.25 µM)
The essentials:
as §1

Compound in the assay “QS11 + Bortezomib”: C1CC2=C(C1)C=C(C=C2)OC3=NC(=C4C(=N3)N(C=N4)CC5=CC=C(C=C5)C6=CC=CC=C6)N[C@@H](CC7=CC=CC=C7)CO [QS11] + CC(C)C[C@H](NC(=O)[C@H](Cc1ccccc1)NC(=O)c1cnccn1)B(O)O [Bortezomib] (partner 0.002 µM)
The procedure, abridged: as §1

With LCLC-97TM1, the relative viability with QS11 + Tozasertib (first compound 0.08 µM) was 0.2; with QS11 + Tozasertib (first compound 0.253 µM), 0.242; in the assay with QS11 + Tozasertib (first compound 2.53 µM) it was 0.199; with QS11 + Tozasertib (first compound 8 µM), 0.146; with QS11 + Palbociclib (first compound 0.253 µM), 0.204; with QS11 + Palbociclib (first compound 2.53 µM), 0.213. The relative viability came out at 0.277 in the assay with QS11 + Palbociclib (first compound 8 µM); 0.95 in the assay with AZ628 + Foretinib (first compound 0.08 µM); 0.867 with AZ628 + Foretinib (first compound 0.253 µM); 0.805 in the assay with AZ628 + Foretinib (first compound 0.8 µM); 0.682 in the assay with AZ628 + Foretinib (first compound 2.53 µM); 0.301 in the assay with AZ628 + Foretinib (first compound 8 µM). For the same cell line, the relative viability with QS11 + Bortezomib (first compound 0.253 µM) turned out to be 0.971; with QS11 + Bortezomib (first compound 0.8 µM), 0.611; with QS11 + Bortezomib (first compound 2.53 µM), 0.537; with QS11 + Bortezomib (first compound 8 µM), 1.18.
